From patent US11197840B2, “Methods of treating or alleviating mental disorders and associated symptoms” (The Florey Institute of Neuroscience and Mental Health, priority 2015, dated 2021)

Assays:
[1] = test system: dynamin 3; test: Next Generation Sequencing (RNAseq) of primary cortical neurons: dynamin 3 transcript; format: cell-based, mouse; conditions: 1 mM 10-HDA vs DMSO, primary cortical neurons of C57Black 6 mice, harvested Day 7
Description: (§1) Foetal cortices of C57Black 6 mice (gestational days 15) were micro-dissected and subjected to trypsin digestion and mechanical trituration and centrifugation. The pelleted cells were resuspended in Neurobasal™ medium (NBM) containing 2.5% B-27 supplement, 1% penicillin, 1% streptomycin, 0.25% GlutaMAX-1 supplement and 10% dialysed foetal calf serum. Cells were seeded on poly-d-lysine (100 μg/ml) coated 12-well plates to a density of […]. Cultures were maintained at 37° C. in a humidified 5% CO2 and 95% air incubator and were subsequently cultured after day 1 in serum-free medium. After 24 hours, primary cortical neurons were treated with DMSO or 1 mM 10-HDA, and harvested for total RNA preparation on Day 7 for subsequent Next Generation Sequencing (RNAseq). […]
(§2) Total RNA was extracted from each sample using the PARIS kit (Ambion). The quality of RNA was assessed by LabChip® (Perkin Elmer). […] The libraries were sequenced with 50 bp single end reads using Illumina Hiseq and subjected to bioinformatic analyses. Sequencing data were assessed (FastQC) and aligned to mouse genome using Subjunc aligner within the Subread package. Sequencing data was summarised into Reads per transcript using Feature counts and the Gencode gene models for the mouse genome build. […]

[2] = test system: 5-hydroxytryptamine (serotonin) receptor 2C; test: Next Generation Sequencing (RNAseq) of primary cortical neurons: 5-hydroxytryptamine receptor 2C transcript; format: cell-based, mouse; conditions: 1 mM 10-HDA vs DMSO, primary cortical neurons of C57Black 6 mice, harvested Day 7
Description: as §1, §2

[3] = test system: male ArKO (aromatase knockout) mice; test: Water mist spray triggered grooming in male ArKO mice treated with 10-HDA; format: in vivo, mouse
Description: Specifically, male 3 month-old ArKO mice (n=5) were injected daily with 10-HDA (500 μg/kg) for 1 week. Similarly to Example 1 (see above), water mist spray triggered grooming was assessed before and after administration of 10-HDA treatment. During grooming assessment, each mouse was subjected to two squirts of sterile water mist spray and its grooming activity was recorded for 10 min immediately after the mist spray. Grooming duration was analyzed statistically by paired t test. […] Further grooming assessment was performed 5 days after the last administration of 10-HDA.

[4] = test system: male ArKO mice; test: Behavioural disturbances of male ArKO mice (wheel running, compulsive grooming); format: in vivo, mouse; conditions: administration to male ArKO mice; general statement
Description: Specifically, the grooming activity of each animal was analysed for 20 min after administration of water mist spray (a trigger for grooming). […] Compulsive grooming observed in ArKO represents an OCD-like repetitive behavioural disturbance in OCD-patients.

Which “transcript expression level of dynamin 3” value [1] does the source give for `O=C(O)C=CCCCCCCCO` [10-HDA, 10-hydroxy-2-decenoic acid] here?
The value was “significantly upregulated”.

What about the “transcript expression level of 5-hydroxytryptamine (serotonin) receptor 2C” value [2] of the same compound?
The value was “significantly upregulated”.

What about the “grooming duration after the withdrawal period” value ([3]; 5 days after the last administration of 10-HDA, male ArKO mice) of the same compound?
Its value is “return to pre-treatment levels”.

And the “duration of grooming after administration of 10-HDA” value ([3]; male 3 month-old ArKO mice, 500 μg/kg injected daily for 1 week, 10 min after water mist spray, before vs after treatment, paired t test p=0.0363)?
Its value is “significant reduction”.

And the “behavioural disturbances, including wheel running and/or compulsive grooming” value [4]?
The value was “alleviated one or more of the behavioural disturbances”.
